Experimental data taken from patent US9790188B2, “Benzimidazole derivatives and uses thereof” (Whitehead Institute for Biomedical Research, priority 2013, dated 2017).

Key:
α-syn = experiment: Yeast growth rescue from α-syn toxicity (dose-response); type: cell-based; conditions: relative to parent ABI1
Protocol: For galactose-induction experiments, overnight cultures were grown in CSM/2% glucose to saturation and diluted 1:20 into CSM/2% raffinose for ˜2 generations. Cultures were then diluted into CSM/2% galactose at an optimum OD600 for the experiment (see ‘Growth assays’).
(§1) Source plates were assembled in 96 well plates using multichannel pipettes to dilute rows in 1.6-fold serial dilutions of CSMGal. […] For α-syn, the final starting OD600 was 0.02. Drug concentration ranges varied depending on efficacy, growth inhibition, and solubility in media. A Tecan EvoFreedom liquid handling robot was then used to transfer culture from 96 to 384 well format with each well being represented four times. Final well volume was 35 μL. Plates were then incubated in humidified containers at 30° C. for either 24 or 40 hours. Plates were then read with a Tecan Saphire plate reader at OD600.
(§2) Raw OD600 values were transformed to “Relative Growth” in WT cells or “% Maximum Rescue” in α-syn experiments. In WT cells, the well background was subtracted and all values were then normalized to 100% for the untreated condition. In α-syn rescue experiments, the well background was subtracted and the maximum rescue in the particular experiment was normalized to 100%.

WT yeast = experiment: Growth inhibition of wild-type yeast (dose-response); type: cell-based; conditions: relative to parent ABI1
Protocol: as §1, §2

Cc1cc(C)cc(-n2cnc3cc(C(=O)NCc4ccccc4Cl)ccc32)c1 [ABI3, N-(2-chlorobenzyl)-1-(3,5-dimethylphenyl)-1H-benzo[d]imidazole-5-carboxamide]
shift of concentrations for efficacy against α-syn (α-syn): higher | shift of concentrations for ability to inhibit growth (WT yeast): higher
